Experimental data as given in BindingDB's records for doi:10.1002/cbic.201300187 (The Johns Hopkins University, 2013).

These compounds were tested against T1, 1-deoxy-D-xylulose-5-phosphate synthase (Escherichia coli (strain K12), UniProt P77488) (assay: DXP Synthase Inhibition Assay). Conditions: pH 8; 37 °C.
T1 sequence (P77488 whole entry): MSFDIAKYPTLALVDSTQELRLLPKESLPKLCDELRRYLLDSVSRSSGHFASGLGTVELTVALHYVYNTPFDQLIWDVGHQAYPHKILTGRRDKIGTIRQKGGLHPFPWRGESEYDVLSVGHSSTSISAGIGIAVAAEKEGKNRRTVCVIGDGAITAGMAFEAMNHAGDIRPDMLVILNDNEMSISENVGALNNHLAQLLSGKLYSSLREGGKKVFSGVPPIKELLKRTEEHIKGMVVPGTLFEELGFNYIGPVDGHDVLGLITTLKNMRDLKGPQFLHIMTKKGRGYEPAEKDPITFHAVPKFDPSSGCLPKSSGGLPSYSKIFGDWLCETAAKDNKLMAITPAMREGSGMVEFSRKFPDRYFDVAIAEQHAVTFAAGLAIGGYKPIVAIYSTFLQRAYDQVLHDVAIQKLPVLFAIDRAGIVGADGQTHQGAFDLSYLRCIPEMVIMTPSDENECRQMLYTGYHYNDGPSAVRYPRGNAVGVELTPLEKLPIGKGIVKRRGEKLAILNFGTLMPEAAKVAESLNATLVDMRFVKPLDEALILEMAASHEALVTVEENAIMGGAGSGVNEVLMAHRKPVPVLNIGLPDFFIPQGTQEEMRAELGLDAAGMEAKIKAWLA
Procedure: Reaction mixtures containing HEPES (100mM, pH 8.0, 2mM MgCl2, 5mM NaCl), ThDP (1mM), BSA (1mg/mL), DMSO (10%, v/v), ᴅ-GAP (30µM), pyruvate (80µM), and various concentrations of nitroso inhibitor were preincubated at 37°C for 5 min. Enzyme reactions were initiated by addition of DXP synthase (0.1µM). Aliquots (150µL) of the enzymatic mixture were removed between 0.5 and 3 min and quenched in ice-cold methanol (150µL).

Compound | IC50 [µM]
Cc1nn(C(C)C)c(C)c1N=O [1‐isopropyl‐3,5‐dimethyl‐4‐nitrosopyrazole (Substrate 9)] | > 2000
COc1ccc2ccc(O)c(N=O)c2c1 [7‐methoxy‐1‐nitrosonaphthalen‐2‐ol (Substrate 8)] | > 2000
CN(C)c1ccc(N=O)cc1 [NDMA (Substrate 4)] | 844
O=Nc1ccccc1 [NOB] | 208
